Source: PMC5218480 (PLoS ONE, 2017)

Tested on: MV-4-11 cells
Experiment: Gene expression microarray analysis (Affymetrix PrimeView) and GSEA
Type: cell-based, human
Design: RFU PODN (11730768_x_at) / Fold change /veh PODN (11730768_x_at) / RFU LINC00158 (11744669_a_at) / Fold change /veh LINC00158 (11744669_a_at) / RFU DUSP10 (11751237_a_at) / Fold change /veh DUSP10 (11751237_a_at) / RFU ID3 (11757404_x_at) / Fold change /veh ID3 (11757404_x_at) / RFU PLEKHG5 (11737974_s_at) / Fold change /veh PLEKHG5 (11737974_s_at) / RFU LRRC4B (11730491_at) / Fold change /veh LRRC4B (11730491_at) / RFU GIMAP4 (11747438_a_at) / Fold change /veh GIMAP4 (11747438_a_at) / RFU KRT8 (11758183_x_at) / Fold change /veh KRT8 (11758183_x_at) / RFU CNN1 (11734310_a_at) / Fold change /veh CNN1 (11734310_a_at) / RFU VPS37D (11726825_at) / Fold change /veh VPS37D (11726825_at) / RFU C10orf10 (11716522_x_at) / Fold change /veh C10orf10 (11716522_x_at) / RFU KIR2DL2 /// KIR2DL4 /// KIR2DL5A /// KIR2DL5B /// KIR2DS1 /// KIR2DS2 /// KIR2DS3 /// KIR2DS4 /// KIR3DL3 /// KIR3DL3 /// KIR3DS1 (11738374_at) / Fold change /veh KIR2DL2 /// KIR2DL4 /// KIR2DL5A /// KIR2DL5B /// KIR2DS1 /// KIR2DS2 /// KIR2DS3 /// KIR2DS4 /// KIR3DL3 /// KIR3DL3 /// KIR3DS1 (11738374_at) / RFU C1QL1 (11718748_at) / Fold change /veh C1QL1 (11718748_at) / RFU TMPRSS4 (11747572_a_at) / Fold change /veh TMPRSS4 (11747572_a_at) / RFU HAMP (11756126_x_at) / Fold change /veh HAMP (11756126_x_at) / RFU RNFT2 (11725882_a_at) / Fold change /veh RNFT2 (11725882_a_at) / RFU NR4A2 (11747474_a_at) / Fold change /veh NR4A2 (11747474_a_at) / RFU ABCC12 (11746883_a_at) / Fold change /veh ABCC12 (11746883_a_at) / RFU TMEM136 (11760407_x_at) / Fold change /veh TMEM136 (11760407_x_at) / RFU CLDN22 /// WWC2 (11732394_at) / Fold change /veh CLDN22 /// WWC2 (11732394_at) / RFU HLA-DPB1 (11760878_x_at) / Fold change /veh HLA-DPB1 (11760878_x_at) / RFU SPINT1 (11716480_a_at) / Fold change /veh SPINT1 (11716480_a_at) / RFU GAP43 (11754022_s_at) / Fold change /veh GAP43 (11754022_s_at) / RFU A4GNT (11735810_at) / Fold change /veh A4GNT (11735810_at) / RFU PRB3 (11715151_x_at) / Fold change /veh PRB3 (11715151_x_at) / RFU TUBB4B (11761932_at) / Fold change /veh TUBB4B (11761932_at) / RFU CAPN14 (11732068_a_at) / Fold change /veh CAPN14 (11732068_a_at) / RFU TMCC2 (11721928_a_at) / Fold change /veh TMCC2 (11721928_a_at) / RFU IRGQ (11745062_a_at) / Fold change /veh IRGQ (11745062_a_at) / RFU FAM174B (11720279_a_at) / Fold change /veh FAM174B (11720279_a_at) / RFU TMPRSS4 (11748680_a_at) / Fold change /veh TMPRSS4 (11748680_a_at) / RFU FAM212B (11763350_a_at) / Fold change /veh FAM212B (11763350_a_at) / RFU PLEKHG5 (11743358_a_at) / Fold change /veh PLEKHG5 (11743358_a_at) / RFU ZSCAN30 (11745921_a_at) / Fold change /veh ZSCAN30 (11745921_a_at) / RFU CMKLR1 (11741424_a_at) / Fold change /veh CMKLR1 (11741424_a_at) / RFU LOC101060620 /// MAPK8IP1 (11723275_at) / Fold change /veh LOC101060620 /// MAPK8IP1 (11723275_at) / RFU SPTSSB (11747773_x_at) / Fold change /veh SPTSSB (11747773_x_at) / RFU PRSS12 (11739890_at) / Fold change /veh PRSS12 (11739890_at) / RFU BIN1 (11741810_x_at) / Fold change /veh BIN1 (11741810_x_at) / RFU WNT11 (11732464_a_at) / Fold change /veh WNT11 (11732464_a_at) / RFU C10orf10 (11716521_a_at) / Fold change /veh C10orf10 (11716521_a_at) / RFU C5orf56 (11738089_at) / Fold change /veh C5orf56 (11738089_at) / RFU CYB561 (11721691_x_at) / Fold change /veh CYB561 (11721691_x_at) / RFU ANKRD19P (11752326_a_at) / Fold change /veh ANKRD19P (11752326_a_at) / RFU OR2T12 /// OR2T33 /// OR2T8 (11738714_s_at) / Fold change /veh OR2T12 /// OR2T33 /// OR2T8 (11738714_s_at) / RFU VCAN (11748164_a_at) / Fold change /veh VCAN (11748164_a_at) / RFU JSRP1 (11732532_at) / Fold change /veh JSRP1 (11732532_at) / RFU KRTAP10-11 (11738290_x_at) / Fold change /veh KRTAP10-11 (11738290_x_at) / RFU MYO3A (11730013_a_at) / Fold change /veh MYO3A (11730013_a_at) / RFU EBF3 (11725865_a_at) / Fold change /veh EBF3 (11725865_a_at) / RFU CAMK2N1 (11719241_x_at) / Fold change /veh CAMK2N1 (11719241_x_at) / RFU C5orf56 (11738088_a_at) / Fold change /veh C5orf56 (11738088_a_at) / RFU OLFML3 (11715873_a_at) / Fold change /veh OLFML3 (11715873_a_at) / RFU LOC100653217 /// NTM (11731650_a_at) / Fold change /veh LOC100653217 /// NTM (11731650_a_at) / RFU MAPK11 (11762145_a_at) / Fold change /veh MAPK11 (11762145_a_at) / RFU FIZ1 (11724087_x_at) / Fold change /veh FIZ1 (11724087_x_at) / RFU OASL (11726364_x_at) / Fold change /veh OASL (11726364_x_at) / RFU SOX15 (11748057_x_at) / Fold change /veh SOX15 (11748057_x_at) / RFU CD79A (11719716_a_at) / Fold change /veh CD79A (11719716_a_at) / RFU HIST1H1D (11736915_at) / Fold change /veh HIST1H1D (11736915_at) / RFU CASKIN2 (11723855_a_at) / Fold change /veh CASKIN2 (11723855_a_at) / RFU LOC730098 (11760151_x_at) / Fold change /veh LOC730098 (11760151_x_at) / RFU OR4N2 (11742367_at) / Fold change /veh OR4N2 (11742367_at) / RFU PRRT2 (11749266_a_at) / Fold change /veh PRRT2 (11749266_a_at) / RFU SNX32 (11753110_a_at) / Fold change /veh SNX32 (11753110_a_at) / RFU CDHR5 (11726645_a_at) / Fold change /veh CDHR5 (11726645_a_at) / RFU RCAN1 (11760418_a_at) / Fold change /veh RCAN1 (11760418_a_at) / RFU FAM167A (11723789_a_at) / Fold change /veh FAM167A (11723789_a_at) / RFU FAM26E (11764081_at) / Fold change /veh FAM26E (11764081_at) / RFU ISYNA1 (11749810_s_at) / Fold change /veh ISYNA1 (11749810_s_at) / RFU ACY1 (11761880_at) / Fold change /veh ACY1 (11761880_at) / RFU 11764098_at / Fold change /veh 11764098_at / RFU SAMD14 (11745864_x_at) / Fold change /veh SAMD14 (11745864_x_at) / RFU NPB (11741838_a_at) / Fold change /veh NPB (11741838_a_at) / RFU TMPRSS6 (11731388_a_at) / Fold change /veh TMPRSS6 (11731388_a_at) / RFU KRTAP10-2 (11738614_at) / Fold change /veh KRTAP10-2 (11738614_at) / RFU ARHGAP8 /// PRR5-ARHGAP8 (11727945_x_at) / Fold change /veh ARHGAP8 /// PRR5-ARHGAP8 (11727945_x_at) / RFU KRTAP5-7 /// NADSYN1 (11734609_at) / Fold change /veh KRTAP5-7 /// NADSYN1 (11734609_at) / RFU RASL12 (11751679_a_at) / Fold change /veh RASL12 (11751679_a_at) / RFU CDKN2B (11736163_a_at) / Fold change /veh CDKN2B (11736163_a_at) / RFU PRF1 (11729649_at) / Fold change /veh PRF1 (11729649_at) / RFU, ZNF638 /// ZNF638-IT1 / Fold change vs veh, ZNF638 /// ZNF638-IT1 / RFU, PANK3 / Fold change vs veh, PANK3 / RFU, SH3YL1 / Fold change vs veh, SH3YL1 / RFU, ZEB2 / Fold change vs veh, ZEB2 / RFU, NRIP1 / Fold change vs veh, NRIP1 / RFU, PTTG1IP / Fold change vs veh, PTTG1IP / RFU, CAPN2 / Fold change vs veh, CAPN2 / RFU, MED14 / Fold change vs veh, MED14 / RFU, SNORA58 / Fold change vs veh, SNORA58 / RFU, C1orf63 / Fold change vs veh, C1orf63 / RFU, LRRFIP1 / Fold change vs veh, LRRFIP1 / RFU, NDUFAF7 / Fold change vs veh, NDUFAF7 / RFU, SLC12A2 / Fold change vs veh, SLC12A2 / RFU, IBTK / Fold change vs veh, IBTK / RFU, ESF1 / Fold change vs veh, ESF1 / Fold change vs veh, TMEM50B / RFU, TAOK1 / Fold change vs veh, TAOK1 / RFU, ACBD3 / Fold change vs veh, ACBD3 / RFU, TMA16 / Fold change vs veh, TMA16 / RFU, RWDD3 / Fold change vs veh, RWDD3 / RFU, BCAT1 / Fold change vs veh, BCAT1 / RFU, EDEM3 / Fold change vs veh, EDEM3 / RFU, TMEM33 / Fold change vs veh, TMEM33 / RFU, WDR75 / Fold change vs veh, WDR75 / RFU, AHCTF1 / Fold change vs veh, AHCTF1 / RFU, TFRC / Fold change vs veh, TFRC / RFU, ZDHHC17 / Fold change vs veh, ZDHHC17 / RFU, NOM1 / Fold change vs veh, NOM1 / RFU, ARL8B / Fold change vs veh, ARL8B / RFU, ZBTB11 / Fold change vs veh, ZBTB11 / RFU, TAMM41 / Fold change vs veh, TAMM41 / RFU, KIAA1704 /// LOC100996395 / Fold change vs veh, KIAA1704 /// LOC100996395 / RFU, ING1 / Fold change vs veh, ING1 / RFU, TRMT61B / Fold change vs veh, TRMT61B / RFU, FUBP3 / Fold change vs veh, FUBP3 / RFU, TP53 / Fold change vs veh, TP53 / RFU, TNKS2 / Fold change vs veh, TNKS2 / RFU, ZFP14 / Fold change vs veh, ZFP14 / RFU, ACTR2 / Fold change vs veh, ACTR2 / RFU, PPP3R1 / Fold change vs veh, PPP3R1 / RFU, PIK3R1 / Fold change vs veh, PIK3R1 / RFU, HNRNPA1 / Fold change vs veh, HNRNPA1 / RFU, RNF170 / Fold change vs veh, RNF170 / RFU, ZNF28 / Fold change vs veh, ZNF28 / RFU, RNGTT / Fold change vs veh, RNGTT / RFU, OGT / Fold change vs veh, OGT / RFU, BRD1 / Fold change vs veh, BRD1 / RFU, MARS / Fold change vs veh, MARS / RFU, ZNF655 / Fold change vs veh, ZNF655 / RFU, FAHD1 / Fold change vs veh, FAHD1 / RFU, BDP1 / Fold change vs veh, BDP1 / RFU, LRRCC1 / Fold change vs veh, LRRCC1 / RFU, ARID1A / Fold change vs veh, ARID1A / RFU, ZNF146 / Fold change vs veh, ZNF146 / RFU, ZNF330 / Fold change vs veh, ZNF330 / RFU, GPN3 / Fold change vs veh, GPN3 / RFU, C9orf123 / Fold change vs veh, C9orf123 / RFU, N4BP2L2 / Fold change vs veh, N4BP2L2 / RFU, ARFIP1 / Fold change vs veh, ARFIP1 / RFU, FAM179B / Fold change vs veh, FAM179B / RFU, BCL10 / Fold change vs veh, BCL10 / RFU, UHRF1BP1L / Fold change vs veh, UHRF1BP1L / RFU, BET1 / Fold change vs veh, BET1 / RFU, CNOT2 / Fold change vs veh, CNOT2 / RFU, ZNF268 / Fold change vs veh, ZNF268 / Fold change vs veh, ZNF507 / RFU, DGCR2 / Fold change vs veh, DGCR2 / RFU, WDSUB1 / Fold change vs veh, WDSUB1 / Fold change vs veh, HSP90B1 /// MIR3652 / RFU, ADSS / Fold change vs veh, ADSS / RFU, GK / Fold change vs veh, GK / RFU, ZNF148 / Fold change vs veh, ZNF148 / RFU, TAF9 / Fold change vs veh, TAF9 / RFU, SLC1A5 / Fold change vs veh, SLC1A5 / RFU, SLMO2 / Fold change vs veh, SLMO2 / RFU, ABCC4 / Fold change vs veh, ABCC4 / RFU, LOC101060439 /// RAP1B / Fold change vs veh, LOC101060439 /// RAP1B / RFU, RFX7 / Fold change vs veh, RFX7 / RFU, GTPBP10 / Fold change vs veh, GTPBP10 / RFU, CNEP1R1 / Fold change vs veh, CNEP1R1 / RFU, BIVM-ERCC5 /// ERCC5 / Fold change vs veh, BIVM-ERCC5 /// ERCC5 / RFU, ILF3 / Fold change vs veh, ILF3 / RFU 11762660_at / Fold change /veh 11762660_at / RFU VCAN (11757783_s_at) / Fold change /veh VCAN (11757783_s_at) / RFU DDX43 (11728927_at) / Fold change /veh DDX43 (11728927_at) / RFU KRT8 (11758188_x_at) / Fold change /veh KRT8 (11758188_x_at) / RFU NKD1 (11759106_at) / Fold change /veh NKD1 (11759106_at) / RFU SRD5A1 (11742802_a_at) / Fold change /veh SRD5A1 (11742802_a_at) / RFU TPSAB1 /// TPSB2 (11721975_s_at) / Fold change /veh TPSAB1 /// TPSB2 (11721975_s_at) / RFU GSTM3 (11746129_a_at) / Fold change /veh GSTM3 (11746129_a_at) / RFU IL23R (11737362_x_at) / Fold change /veh IL23R (11737362_x_at) / RFU TMEM51 (11727254_a_at) / Fold change /veh TMEM51 (11727254_a_at) / RFU PIWIL2 (11732686_x_at) / Fold change /veh PIWIL2 (11732686_x_at) / RFU ORM1 (11744905_x_at) / Fold change /veh ORM1 (11744905_x_at) / RFU CCDC152 (11743942_at) / Fold change /veh CCDC152 (11743942_at) / RFU ECM1 (11717891_a_at) / Fold change /veh ECM1 (11717891_a_at) / RFU IL23R (11748794_a_at) / Fold change /veh IL23R (11748794_a_at) / RFU TNFAIP8L3 (11732012_x_at) / Fold change /veh TNFAIP8L3 (11732012_x_at) / RFU MBOAT4 (11741988_at) / Fold change /veh MBOAT4 (11741988_at) / RFU 11764193_at / Fold change /veh 11764193_at / RFU TMEM53 (11763286_at) / Fold change /veh TMEM53 (11763286_at) / RFU MAGEB2 (11727129_at) / Fold change /veh MAGEB2 (11727129_at) / RFU TMEM200A (11744735_a_at) / Fold change /veh TMEM200A (11744735_a_at) / RFU CCDC152 (11751479_a_at) / Fold change /veh CCDC152 (11751479_a_at) / RFU FAM211A (11726209_a_at) / Fold change /veh FAM211A (11726209_a_at) / RFU RGS16 (11746705_a_at) / Fold change /veh RGS16 (11746705_a_at) / RFU VCAN (11755009_s_at) / Fold change /veh VCAN (11755009_s_at) / RFU RHOB (11743442_s_at) / Fold change /veh RHOB (11743442_s_at) / RFU RGS16 (11720943_a_at) / Fold change /veh RGS16 (11720943_a_at) / RFU RGS16 (11720944_at) / Fold change /veh RGS16 (11720944_at) / RFU, VPS4B / Fold change vs veh, VPS4B / RFU, CREB1 / Fold change vs veh, CREB1 / RFU, DNAJC13 / Fold change vs veh, DNAJC13 / RFU, GNAQ / Fold change vs veh, GNAQ / RFU, CDK5R1 / Fold change vs veh, CDK5R1 / RFU, ZRANB3 / Fold change vs veh, ZRANB3 / RFU, CUL4A / Fold change vs veh, CUL4A / RFU, CCNY / Fold change vs veh, CCNY / RFU, UFL1 / Fold change vs veh, UFL1 / RFU, COG3 / Fold change vs veh, COG3 / RFU, DIAPH2 / Fold change vs veh, DIAPH2 / RFU, SKA2 / Fold change vs veh, SKA2 / RFU, AFF3 / Fold change vs veh, AFF3 / RFU, LMF1 / Fold change vs veh, LMF1 / RFU, IPO11 / Fold change vs veh, IPO11 / RFU, DFFB / Fold change vs veh, DFFB / RFU, FOXP1 / Fold change vs veh, FOXP1 / RFU, CARD8 / Fold change vs veh, CARD8 / RFU, STRN3 / Fold change vs veh, STRN3 / RFU, ADK / Fold change vs veh, ADK / RFU, RASSF2 / Fold change vs veh, RASSF2 / RFU, WIPF1 / Fold change vs veh, WIPF1 / RFU, LARP1B / Fold change vs veh, LARP1B / RFU, RASA1 / Fold change vs veh, RASA1 / RFU, RB1 / Fold change vs veh, RB1 / RFU, PPFIA1 / Fold change vs veh, PPFIA1 / RFU, MAT2A / Fold change vs veh, MAT2A / RFU, CCT5 / Fold change vs veh, CCT5 / RFU, WDR92 / Fold change vs veh, WDR92 / RFU, CUX1 / Fold change vs veh, CUX1 / RFU, TTC7A / Fold change vs veh, TTC7A / RFU, TMEM135 / Fold change vs veh, TMEM135 / RFU, DEPTOR / Fold change vs veh, DEPTOR / RFU, CPM / Fold change vs veh, CPM / RFU, DNAJB6 / Fold change vs veh, DNAJB6 / RFU, CACNA2D3 / Fold change vs veh, CACNA2D3 / RFU, DTX4 / Fold change vs veh, DTX4 / RFU, TFCP2 / Fold change vs veh, TFCP2 / RFU, GMCL1 /// GMCL1P1 / Fold change vs veh, GMCL1 /// GMCL1P1 / RFU, AEBP2 / Fold change vs veh, AEBP2 / RFU, SNHG1 /// SNORD22 /// SNORD25 /// SNORD26 /// SNORD27 /// SNORD28 /// SNORD29 /// SNORD31 / Fold change vs veh, SNHG1 /// SNORD22 /// SNORD25 /// SNORD26 /// SNORD27 /// SNORD28 /// SNORD29 /// SNORD31 / Fold change (Aza/veh), C12orf56 (ProbeSet 11735607_a_at) / Fold change (ACY-1035/veh), C12orf56 (ProbeSet 11735607_a_at) / Fold change (Aza/veh), FGFR1OP (ProbeSet 11751329_s_at) / Fold change (ACY-1035/veh), FGFR1OP (ProbeSet 11751329_s_at) / Fold change (Aza/veh), VPS36 (ProbeSet 11739960_a_at) / Fold change (ACY-1035/veh), VPS36 (ProbeSet 11739960_a_at) / RFU SYPL1 (11715823_x_at) / Fold change /veh SYPL1 (11715823_x_at) / RFU IGFBP7 (11715501_s_at) / Fold change /veh IGFBP7 (11715501_s_at) / RFU REEP3 (11722064_at) / Fold change /veh REEP3 (11722064_at) / RFU IGLL1 (11728026_x_at) / Fold change /veh IGLL1 (11728026_x_at): dose or concentration left out as unconfirmed
Settings: MV-4-11 cells, 48 hours

**Q.** `Nc1ncn([C@@H]2O[C@H](CO)[C@@H](O)[C@H]2O)c(=O)n1` [azacitidine] was tested. Which “Fold change /veh PODN (11730768_x_at)” value did it give?
**A.** 1.12
